Test results: article PMC4031649 (Cell reports, 2014)

Biological target: T1, GGCT (Homo sapiens, UniProt O75223)
T1 sequence (O75223 1-188): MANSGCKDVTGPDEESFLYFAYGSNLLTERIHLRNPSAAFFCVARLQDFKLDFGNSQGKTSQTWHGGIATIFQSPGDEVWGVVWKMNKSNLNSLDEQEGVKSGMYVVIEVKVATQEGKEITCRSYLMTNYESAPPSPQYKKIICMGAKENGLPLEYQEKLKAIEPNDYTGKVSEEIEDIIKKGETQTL
Test: thin layer chromatography, ninhydrin
Type: biochemical
Conditions: glycine release

SMILES: N[C@@H](CCC(=O)NCC(=O)O)C(=O)O [γ-glutamyl-glycine]
- thin layer chromatography, ninhydrin: Both GGCT and Botch release glycine by cleavage of γ-glutamyl-glycine
